Test results: patent US8952157B2, “Apoptosis-inducing agents for the treatment of cancer and immune and autoimmune diseases” (AbbVie Inc., priority 2008, dated 2015)
pKi: −log10 of the molar value.

Each compound was assayed against GST-Bcl-2 (Homo sapiens (Human), UniProt P10415) (assay: Time Resolved-Fluorescence Resonance Energy Transfer (TR-FRET) Bcl-2 binding assay). Conditions: GST-Bcl-2 1 nM, F-Bak peptide probe 100 nM, Tb-anti-GST antibody 1 nM; Ki by Wang's equation.
Method: Determination of the utility of compounds having Formula (I) as binders to and inhibitors of anti-apoptotic Bcl-2 proteins was performed using the Time Resolved-Fluorescence Resonance Energy Transfer (TR-FRET) Assay. Tb-anti-GST antibody was purchased from Invitrogen (Catalog No. PV4216).
(§1) Representative compounds were serially diluted in dimethyl sulfoxide (DMSO) starting at 50 μM (2× starting concentration; 10% DMSO) and 10 μL were transferred into a 384-well plate. The samples are then mixed on a shaker for 1 minute and incubated for an additional 3 hours at room temperature. For each assay, the probe/antibody and protein/probe/antibody were included on each assay plate as negative and positive controls, respectively. Fluorescence was measured on the Envision (Perkin Elmer) using a 340/35 nm excitation filter and 520/525 (F-Bak peptide) and 495/510 nm (Tb-labeled anti-Histidine antibody) emission filters.
as §1, with “The” for “Representative compounds were serially diluted in dimethyl sulfoxide (DMSO) starting at 50 μM (2× starting concentration; 10% DMSO) and 10 μL were transferred into a 384-well plate. The”, “were” for “are”
The inhibition constant (Ki) is the dissociation constant of an enzyme-inhibitor complex or a protein/small molecule complex, wherein the small molecule is inhibiting binding of one protein to another protein. So a large Ki value indicates a low binding affinity and a small Ki value indicates a high binding affinity.

Chain of GST-Bcl-2 (P10415 whole entry): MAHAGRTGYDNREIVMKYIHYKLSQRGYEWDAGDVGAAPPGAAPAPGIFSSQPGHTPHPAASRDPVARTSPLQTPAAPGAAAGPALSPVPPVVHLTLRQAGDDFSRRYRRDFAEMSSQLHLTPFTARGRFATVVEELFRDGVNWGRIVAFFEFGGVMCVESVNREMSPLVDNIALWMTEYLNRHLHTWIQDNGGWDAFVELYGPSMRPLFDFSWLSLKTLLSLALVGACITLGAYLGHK

Point of comparison: `CC1(C)CCC(CN2CCN(c3ccc(C(=O)NS(=O)(=O)c4ccc(OCC5CCOCC5)c([N+](=O)[O-])c4)c(Oc4cc5cc[nH]c5cc4F)c3)CC2)=C(c2ccc(Cl)cc2)C1` [Example 264, 4-(4-{[2-(4-chlorophenyl)-4,4-dimethylcyclohex-1-en-1-yl]methyl}piperazin-1-yl)-2-[(6-fluoro-1H-indol-5-yl)oxy]-N-{[3-nitro-4-(tetrahydro-2H-pyran-4-ylmethoxy)phenyl]sulfonyl}benzamide], pKi 10.17. Against it:
- CC1(C)CCC(CN2CCN(c3ccc(C(=O)NS(=O)(=O)c4ccc(NCC5CCOCC5)c([N+](=O)[O-])c4)c(Oc4cnc(N)c(Cl)c4)c3)CC2)=C(c2ccc(Cl)cc2)C1 [Example 318, 2-[(6-amino-5-chloropyridin-3-yl)oxy]-4-(4-{[2-(4-chlorophenyl)-4,4-dimethylcyclohex-1-en-1-yl]methyl}piperazin-1-yl)-N-({3-nitro-4-[(tetrahydro-2H-pyran-4-ylmethyl)amino]phenyl}sulfonyl)benzamide] — higher, > 11.00
- CC1(C)CCC(CN2CCN(c3ccc(C(=O)NS(=O)(=O)c4ccc(NCC5CCC(O)CC5)c([N+](=O)[O-])c4)c(Oc4cnc(N)c(Cl)c4)c3)CC2)=C(c2ccc(Cl)cc2)C1 (stereo not drawn) [Example 386, 2-[(6-amino-5-chloropyridin-3-yl)oxy]-4-(4-{[2-(4-chlorophenyl)-4,4-dimethylcyclohex-1-en-1-yl]methyl}piperazin-1-yl)-N-[(4-{[(4-hydroxycyclohexyl)methyl]amino}-3-nitrophenyl)sulfonyl]benzamide] — higher, > 11.00
- CN(C)CCCNc1ccc(S(=O)(=O)NC(=O)c2ccc(N3CCN(CC4=C(c5ccc(Cl)cc5)CC(C)(C)CC4)CC3)cc2Oc2ccc(F)cc2)cc1[N+](=O)[O-] [Example 139, 4-(4-{[2-(4-chlorophenyl)-4,4-dimethylcyclohex-1-en-1-yl]methyl}piperazin-1-yl)-N-[(4-{[3-(dimethylamino)propyl]amino}-3-nitrophenyl)sulfonyl]-2-(4-fluorophenoxy)benzamide] — 0.27 log units lower, 9.90
- COCCNc1ccc(S(=O)(=O)NC(=O)c2ccc(N3CCN(CC4=C(c5ccc(Cl)cc5)CC(C)(C)CC4)CC3)cc2Oc2cc3cc[nH]c3cc2F)cc1[N+](=O)[O-] [Example 263, 4-(4-{[2-(4-chlorophenyl)-4,4-dimethylcyclohex-1-en-1-yl]methyl}piperazin-1-yl)-2-[(6-fluoro-1H-indol-5-yl)oxy]-N-({4-[(2-methoxyethyl)amino]-3-nitrophenyl}sulfonyl)benzamide] — 0.21 log units lower, 9.96
- O=C(NS(=O)(=O)c1ccc(NCC2CCOCC2)c([N+](=O)[O-])c1)c1ccc(N2CCN(Cc3ccccc3-c3ccc(Cl)cc3)CC2)cc1Oc1cccc(OCc2ccccc2)c1 [Example 71, 2-(3-(benzyloxy)phenoxy)-4-(4-((4′-chloro-1,1′-biphenyl-2-yl)methyl)piperazin-1-yl)-N-((3-nitro-4-((tetrahydro-2H-pyran-4-ylmethyl)amino)phenyl)sulfonyl)benzamide] — 2.67 log units lower, 7.50
- CC1(C)CCC(CN2CCN(c3ccc(C(=O)NS(=O)(=O)c4ccc(OCC5(F)CCN(C6CC6)CC5)c([N+](=O)[O-])c4)c(Oc4cc5cc[nH]c5cc4F)c3)CC2)=C(c2ccc(Cl)cc2)C1 [Example 341, 4-(4-{[2-(4-chlorophenyl)-4,4-dimethylcyclohex-1-en-1-yl]methyl}piperazin-1-yl)-N-({4-[(1-cyclopropyl-4-fluoropiperidin-4-yl)methoxy]-3-nitrophenyl}sulfonyl)-2-[(6-fluoro-1H-indol-5-yl)oxy]benzamide] — 0.60 log units higher, 10.77
- CN(C)CCCNc1ccc(S(=O)(=O)NC(=O)c2ccc(N3CCN(CC4=C(c5ccc(Cl)cc5)CC(C)(C)CC4)CC3)cc2Oc2ccccc2F)cc1[N+](=O)[O-] [Example 137, 4-(4-{[2-(4-chlorophenyl)-4,4-dimethylcyclohex-1-en-1-yl]methyl}piperazin-1-yl)-N-[(4-{[3-(dimethylamino)propyl]amino}-3-nitrophenyl)sulfonyl]-2-(2-fluorophenoxy)benzamide] — 0.51 log units higher, 10.68
- Nc1ncc(Oc2cc(N3CCN(CC4=C(c5ccc(Cl)cc5)CCC5(CCN(C(CF)CF)CC5)C4)CC3)ccc2C(=O)NS(=O)(=O)c2ccc(NCC3CCOCC3)c([N+](=O)[O-])c2)cc1Cl [Example 391, 2-[(6-amino-5-chloropyridin-3-yl)oxy]-4-[4-({9-(4-chlorophenyl)-3-[2-fluoro-1-(fluoromethyl)ethyl]-3-azaspiro[5.5]undec-8-en-8-yl}methyl)piperazin-1-yl]-N-({3-nitro-4-[(tetrahydro-2H-pyran-4-ylmethyl)amino]phenyl}sulfonyl)benzamide] — higher, > 11.00
- CN1CCN(Nc2ccc(S(=O)(=O)NC(=O)c3ccc(N4CCN(CC5=C(c6ccc(Cl)cc6)CC(C)(C)CC5)CC4)cc3Oc3cnc(N)c(Br)c3)cc2[N+](=O)[O-])CC1 [Example 359, 2-[(6-amino-5-bromopyridin-3-yl)oxy]-4-(4-{[2-(4-chlorophenyl)-4,4-dimethylcyclohex-1-en-1-yl]methyl}piperazin-1-yl)-N-({4-[(4-methylpiperazin-1-yl)amino]-3-nitrophenyl}sulfonyl)benzamide] — 0.21 log units lower, 9.96
- CN1CCC(O)(CNc2ccc(S(=O)(=O)NC(=O)c3ccc(N4CCN(CC5=C(c6ccc(Cl)cc6)CC(C)(C)CC5)CC4)cc3Oc3cccc(F)c3)cc2[N+](=O)[O-])CC1 [Example 198, 4-(4-{[2-(4-chlorophenyl)-4,4-dimethylcyclohex-1-en-1-yl]methyl}piperazin-1-yl)-2-(3-fluorophenoxy)-N-[(4-{[(4-hydroxy-1-methylpiperidin-4-yl)methyl]amino}-3-nitrophenyl)sulfonyl]benzamide] — higher, > 11.00
- CN1CCC(Nc2ccc(S(=O)(=O)NC(=O)c3ccc(N4CCN(CC5=C(c6ccc(Cl)cc6)CC(C)(C)OC5)CC4)cc3Oc3cccc(I)c3)cc2[N+](=O)[O-])CC1 [Example 161, 4-(4-{[4-(4-chlorophenyl)-6,6-dimethyl-5,6-dihydro-2H-pyran-3-yl]methyl}piperazin-1-yl)-2-(3-iodophenoxy)-N-({4-[(1-methylpiperidin-4-yl)amino]-3-nitrophenyl}sulfonyl)benzamide] — 0.34 log units higher, 10.51
- CCN(CC)C1CCC(Nc2ccc(S(=O)(=O)NC(=O)c3ccc(N4CCN(CC5=C(c6ccc(Cl)cc6)CC(C)(C)CC5)CC4)cc3Oc3cccc(Cl)c3)cc2[N+](=O)[O-])CC1 (stereo not drawn) [Example 204, 2-(3-chlorophenoxy)-4-(4-{[2-(4-chlorophenyl)-4,4-dimethylcyclohex-1-en-1-yl]methyl}piperazin-1-yl)-N-[(4-{[4-(diethylamino)cyclohexyl]amino}-3-nitrophenyl)sulfonyl]benzamide] — within 0.2 log units, 10.12
- CC1(C)CCC(CN2CCN(c3ccc(C(=O)NS(=O)(=O)c4ccc(NCC5CCOCC5)c([N+](=O)[O-])c4)c(Oc4cncc(N)c4)c3)CC2)=C(c2ccc(Cl)cc2)C1 [Example 279, 2-[(5-aminopyridin-3-yl)oxy]-4-(4-{[2-(4-chlorophenyl)-4,4-dimethylcyclohex-1-en-1-yl]methyl}piperazin-1-yl)-N-({3-nitro-4-[(tetrahydro-2H-pyran-4-ylmethyl)amino]phenyl}sulfonyl)benzamide] — 1.40 log units lower, 8.77
- CN(C)CCOc1cccc(Oc2cc(N3CCN(Cc4ccccc4-c4ccc(Cl)cc4)CC3)ccc2C(=O)NS(=O)(=O)c2ccc(NCC3CCOCC3)c([N+](=O)[O-])c2)c1 [Example 39, 4-(4-((4′-chloro-1,1′-biphenyl-2-yl)methyl)piperazin-1-yl)-2-(3-(2-(dimethylamino)ethoxy)phenoxy)-N-((3-nitro-4-((tetrahydro-2H-pyran-4-ylmethyl)amino)phenyl)sulfonyl)benzamide] — 0.55 log units higher, 10.72
- CC1(C)CCC(CN2CCN(c3ccc(C(=O)NS(=O)(=O)c4ccc(OCC5(F)CCOCC5)c([N+](=O)[O-])c4)c(Oc4cnc(N)c(Cl)c4)c3)CC2)=C(c2ccc(Cl)cc2)C1 [Example 330, 2-[(6-amino-5-chloropyridin-3-yl)oxy]-4-(4-{[2-(4-chlorophenyl)-4,4-dimethylcyclohex-1-en-1-yl]methyl}piperazin-1-yl)-N-({4-[(4-fluorotetrahydro-2H-pyran-4-yl)methoxy]-3-nitrophenyl}sulfonyl)benzamide] — higher, > 11.00
- COCCN1CCC(Nc2ccc(S(=O)(=O)NC(=O)c3ccc(N4CCN(CC5=C(c6ccc(Cl)cc6)CC(C)(C)CC5)CC4)cc3Oc3cccc(Cl)c3)cc2[N+](=O)[O-])CC1 [Example 173, 2-(3-chlorophenoxy)-4-(4-{[2-(4-chlorophenyl)-4,4-dimethylcyclohex-1-en-1-yl]methyl}piperazin-1-yl)-N-[(4-{[1-(2-methoxyethyl)piperidin-4-yl]amino}-3-nitrophenyl)sulfonyl]benzamide] — 0.55 log units higher, 10.72
- Cc1nc(C)c(-c2cccc(Oc3cc(N4CCN(Cc5ccccc5-c5ccc(Cl)cc5)CC4)ccc3C(=O)NS(=O)(=O)c3ccc(NCCCN4CCOCC4)c([N+](=O)[O-])c3)c2)s1 [Example 33, 4-(4-((4′-chloro-1,1′-biphenyl-2-yl)methyl)piperazin-1-yl)-2-(3-(2,4-dimethyl-1,3-thiazol-5-yl)phenoxy)-N-((4-((3-morpholin-4-ylpropyl)amino)-3-nitrophenyl)sulfonyl)benzamide] — 2.03 log units lower, 8.14
